Some results are limits rather than exact numbers.

By EC50 is commonly meant the concentration giving half of the maximal effect. Low readings indicate greater potency, high ones weaker potency.

This experiment deals with T1, Streptokinase A (Streptococcus pyogenes serotype M1, UniProt P10520).
T1 sequence (P10520 whole entry): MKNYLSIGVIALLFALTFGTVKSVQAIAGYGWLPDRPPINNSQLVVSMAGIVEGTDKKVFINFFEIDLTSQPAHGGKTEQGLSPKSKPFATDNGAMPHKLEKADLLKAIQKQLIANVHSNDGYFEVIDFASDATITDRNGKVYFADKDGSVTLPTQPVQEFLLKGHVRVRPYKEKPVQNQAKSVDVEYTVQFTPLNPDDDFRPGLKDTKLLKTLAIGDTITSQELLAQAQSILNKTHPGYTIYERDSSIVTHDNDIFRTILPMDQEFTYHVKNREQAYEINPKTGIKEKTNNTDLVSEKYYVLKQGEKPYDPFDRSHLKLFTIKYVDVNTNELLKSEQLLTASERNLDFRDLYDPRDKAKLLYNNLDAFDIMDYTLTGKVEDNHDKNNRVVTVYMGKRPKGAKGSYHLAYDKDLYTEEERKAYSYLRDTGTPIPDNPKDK
Put plainly: S. pyogenes streptokinase expression inhibitors, potency, dose response, plasminogen activation absorbance, OD405 (AID 1914).
As for `COC(=O)C1C(C)=NC2=C(C(=O)c3ccccc32)C1c1ccc(-c2ccc(C(=O)O)cc2)o1` (configuration not stated) [4-{5-[3-(methoxycarbonyl)-2-methyl-5-oxo-4,5-dihydro-1H-indeno[1,2-b]pyridin-4-yl]-2-furyl}benzoic acid], the half-maximal effective concentration (EC50) is more than 150 µM.

Consider `CC1=CC(C)(C)N2C(=O)/C(=N\N)c3c(C)c(C)cc1c32` [SMR000414935], for which the EC50 was 16.3 µM.

`COc1cccc(-n2c(O)c3[nH][nH]c(C(=O)CN4C(=O)c5ccccc5C4=O)c-3c2=O)c1` registered an EC50 of more than 150 µM.

`C=CCn1c(SCC(=O)C(C#N)C(C)=N)nc2sc(C)c(C)c2c1=O` (configuration not stated): the EC50 was more than 150 µM.

The molecule `CCCCCCC(=O)NNC=C1C(=O)NC(=S)N(C(C)CC)C1=O` (configuration not stated) [SMR000439319] came in with an EC50 of more than 150 µM.

In the case of `C=Nc1c(N(C(C)=O)c2ccc(Br)cc2)c(O)c2ccccc2c1O` [MLS000700612], the EC50 came out at 23.9 µM.

`Cc1[nH]c2ccccc2c1/C=C1\N=C(c2ccc(F)cc2)OC1=O` [2-(4-fluorophenyl)-4-[(2-methyl-1H-indol-3-yl)methylene]-1,3-oxazol-5(4H)-one] displayed an EC50 of 16.6 µM.

Take `CCCCCCn1[nH]c(C)c(C(=O)c2ccc(Cl)cc2)c1=O` [4-(4-Chloro-benzoyl)-2-hexyl-5-methyl-2,4-dihydro-pyrazol-3-one]: the concentration for a half-maximal effect (EC50) was more than 150 µM.

`O=C(O)COc1ccc(CN=Nc2nc(Nc3ccccc3)nc(N3CCCCC3)n2)cc1` [SMR000312685] displayed an EC50 of more than 150 µM.

On to `CCCCCCCn1[nH]c(C)c(C(=O)c2ccccc2)c1=O` [4-benzoyl-2-heptyl-5-methyl-2,4-dihydro-3H-pyrazol-3-one], for which the EC50 is more than 150 µM.

`O=C1C=CC([N+](=O)[O-])=CC1/C=N/NC(=O)C(O)(c1ccccc1)c1ccccc1` (configuration not stated) had an EC50 of more than 150 µM.

For the molecule `O=C1C(=O)N(Cc2ccco2)C(c2cccc(Cl)c2)C1C(=O)c1ccco1` (configuration not stated) [SMR000665558], the EC50 was more than 150 µM.

The molecule `CC(C)CN1C(=O)/C(=N\NC(=O)c2cccc(S(=O)(=O)N3CCCCC3)c2)c2ccccc21` [MLS000417389] displayed an EC50 of more than 150 µM.

As for `Cc1nn(-c2ccccc2)c(C)c1CN=Nc1nc2ccccc2[nH]1`, the 50% effective concentration (EC50) was more than 150 µM.

`COC1=CC(CN=Nc2nc3ccccc3s2)C=C([N+](=O)[O-])C1=O` (configuration not stated) [MLS000777866] displayed an EC50 of more than 150 µM.

Molecule `Cc1cc(N=NC(C)c2ccccc2O)nc(-c2ccccc2O)n1` (configuration not stated) returned an EC50 of 14 µM. That is a double-digit micromolar value.

`O=C1NC(=S)N(C2CCCCC2)C(=O)C1=CNNC(=O)c1ccccc1` [N'-[(E)-(1-cyclohexyl-4,6-dioxo-2-sulfanylidene-1,3-diazinan-5-ylidene)methyl]benzohydrazide] registered an EC50 of more than 150 µM.

As to `CC1=C2C(=NC3=C(C(=O)c4ccccc43)C2c2c(C)cc(C)cc2C)N(c2ccccn2)N1` (configuration not stated) [SMR000263933], the EC50 was 22.2 µM.

The molecule `CN(C)S(=O)(=O)c1ccc(-c2csc(N=NCc3ccc(O)cc3)n2)cc1` [N,N-dimethyl-4-[2-[2-[(4-oxidanylidenecyclohexa-2,5-dien-1-ylidene)methyl]hydrazinyl]-1,3-thiazol-4-yl]benzenesulfonamide] returned an EC50 of more than 150 µM.

`Cc1cc(N=NCc2cccc(Br)c2)nc2ccccc12` [N-[(3-bromophenyl)methylideneamino]-4-methyl-2-quinolinamine] displayed an EC50 of more than 150 µM.

`Clc1ccc(-c2ccc(CN=Nc3cc(N4CCOCC4)nc(N4CCOCC4)n3)o2)cc1` [MLS000527145]: the EC50 is more than 150 µM.

`O=C1C2=C3C(=C/C1=C\NNC(=O)c1ccccc1O)CCCN3CCC2` [MLS000332414]: the EC50 is more than 150 µM.

Turning to `Cc1ccc(NN=C(C=O)C(=O)c2ccc(Cl)cc2)cc1` [3-(4-chlorophenyl)-2-[(4-methylphenyl)hydrazinylidene]-3-oxopropanal], it took 50 µM to reach a half-maximal effect (EC50).

With `Cc1ccc(C2C(C(=O)c3cc4ccccc4o3)C(=O)C(=O)N2c2cc(C)on2)cc1` (configuration not stated) [MLS001147776], the midpoint of the response, the EC50, lay at 6.3 µM. Compared with the last molecule, the EC50 is about 7.9-fold lower.

On to `O=C(O)c1ccccc1N=NCc1cc(Br)cc(Br)c1O` [2-[2-[(E)-(3,5-dibromo-6-oxocyclohexa-2,4-dien-1-ylidene)methyl]hydrazinyl]benzoic acid], for which the EC50 stood at 32.4 µM.

With `COc1ccc(C2C(C(=O)c3ccccc3)C(C)=Nc3nc4ccccc4n32)c(OC)c1` (configuration not stated) [MLS000586747], the EC50 was more than 150 µM.

In turn, `O=C(CCCCCNC(=O)c1ccccc1)NNC1=c2cc(Br)cc(Br)c2=NC1=O` [N-[6-[2-[5,7-bis(bromanyl)-2-oxidanylidene-indol-3-yl]hydrazinyl]-6-oxidanylidene-hexyl]benzamide] came in with an EC50 of more than 150 µM.

Molecule `COc1ccc(OC)c(C2CC(C34CC5CC(CC(C5)C3)C4)=NC(=S)N2)c1` (configuration not stated) [6-Adamantan-1-yl-4-(2,5-dimethoxy-phenyl)-3,4-dihydro-1H-pyrimidine-2-thione] had an EC50 of 14.7 µM.

As for `Cc1ccsc1C1CC(c2cccc(Br)c2)=Nc2ncnn21` (configuration not stated) [5-(3-bromophenyl)-7-(3-methylthien-2-yl)-4,7-dihydro[1,2,4]triazolo[1,5-a]pyrimidine], the EC50 is more than 150 µM.

Molecule `COc1ccc(OC)c(NC=C2C(=O)NC(=S)N(Cc3ccccc3)C2=O)c1` yielded an EC50 of more than 150 µM.

The molecule `C[N+](C)(C)c1ccc(CN=Nc2nc(Cl)c(C#N)c(Cl)c2Cl)cc1` [trimethyl-[4-[[(3,4,6-trichloro-5-cyanopyridin-2-yl)hydrazinylidene]methyl]phenyl]azanium;iodide] had an EC50 of more than 150 µM.

In turn, `CCCCCCC(=O)NNC=C1C(=O)NC(=S)N(CCCC)C1=O` [MLS000763126] showed a concentration giving a half-maximal response (EC50) of more than 150 µM.

Regarding `Cc1ccc(Nc2nc(N=NCc3ccc4c(c3)OCO4)nc(N3CCOCC3)n2)cc1` [2-N-(1,3-benzodioxol-5-ylmethylideneamino)-4-N-(4-methylphenyl)-6-morpholin-4-yl-1,3,5-triazine-2,4-diamine], the EC50 stood at 111 µM.

In turn, `COC1=CC([N+](=O)[O-])=CC(/C=N/NC(=O)c2cc(-c3ccccc3)nc3ccccc23)C1=O` (configuration not stated) gave an EC50 of more than 150 µM.

In turn, `C[n+]1ccc(CN=Nc2nc(Cl)c(C#N)c(Cl)c2Cl)cc1` [2,4,5-trichloro-6-[2-[(1-methylpyridin-1-ium-4-yl)methylidene]hydrazinyl]pyridine-3-carbonitrile;chloride] gave an EC50 of more than 150 µM.

The molecule `CC(N=Nc1nc(-c2ccccc2F)nc2ccccc12)c1ccccc1O` (configuration not stated) [2-(1-{[2-(2-Fluoro-phenyl)-quinazolin-4-yl]-hydrazono}-ethyl)-phenol] yielded an EC50 of more than 150 µM.

As to `Fc1ccc(Br)cc1C1CC(c2ccc(Br)s2)=Nc2ncnn21` (configuration not stated) [SMR000032932], the concentration giving a half-maximal response (EC50) is more than 150 µM.

Take `Cc1nc(N=NC(C)c2ccc(Br)cc2)cc(N2CCCCC2)n1` (configuration not stated) [N-[1-(4-bromophenyl)ethylideneamino]-2-methyl-6-piperidin-1-ylpyrimidin-4-amine]: the EC50 worked out at 46.7 µM.

`CC(NNC(=O)c1cc2ccccc2cc1O)=C1C(=O)c2ccccc2C1=O` [N-[1-[1,3-bis(oxidanylidene)inden-2-yl]ethylideneamino]-3-oxidanyl-naphthalene-2-carboxamide]: the 50% effective concentration (EC50) is more than 150 µM.

As for `N#CC1C(=N)SC(=N)C(C#N)C1c1c(Cl)cccc1Cl` (configuration not stated) [SMR000009709], it took 93.5 µM to reach a half-maximal effect (EC50). In other words, the double-digit micromolar range.

In turn, `O=C1C(=NNC(=S)Nc2ccccc2F)c2ccccc2N1Cc1cccc(Cl)c1` [1-[(Z)-[1-[(3-chlorophenyl)methyl]-2-oxoindol-3-ylidene]amino]-3-(2-fluorophenyl)thiourea] showed an EC50 of more than 150 µM.

In turn, `O=C1C([N+](=O)[O-])=CC(Cl)=CC1CN=Nc1ccccn1` (configuration not stated) [MLS000539830] gave an EC50 of 11.1 µM.

`CC(=N)C(C#N)C(=O)COC(=O)c1cc(-c2ccc(Br)cc2)nc2ccccc12` (configuration not stated) [SMR000264784] registered an EC50 of 4.43 µM.

Molecule `CC(=N)C(C#N)C(=O)CSc1nc2cc(Cl)ccc2c(=O)n1Cc1ccco1` (configuration not stated) [(E)-3-amino-2-[2-[7-chloro-3-(furan-2-ylmethyl)-4-oxoquinazolin-2-yl]sulfanylacetyl]but-2-enenitrile] returned an EC50 of more than 150 µM.

The molecule `CN1c2ccsc2C(NNc2ccccc2)=CS1(=O)=O` [N-[(1-methyl-2,2-dioxo-4-thieno[3,2-c]thiazinylidene)amino]aniline] came in with an EC50 of 4.12 µM.

The molecule `Cc1ccc(F)c(NC(=O)C(C#N)C(=O)c2ccc(C(C)(C)C)cc2)c1` (configuration not stated) [(Z)-2-(4-tert-butylphenyl)carbonyl-3-[(2-fluoranyl-5-methyl-phenyl)amino]-3-oxidanyl-prop-2-enenitrile] yielded an EC50 of more than 150 µM.

Regarding `O=C1Nc2ccccc2C1=NNc1ccc(S(=O)(=O)Nc2cccc(Cl)c2)cc1[N+](=O)[O-]` [N-(3-chlorophenyl)-3-nitro-4-[2-(2-oxoindol-3-yl)hydrazinyl]benzenesulfonamide], a half-maximal effect (EC50) was put at 27.4 µM.

For `Oc1nc(Nc2ccc(Cl)cc2)sc1Cc1cc(Cl)ccc1Cl` [2-(4-chloroanilino)-5-(2,5-dichlorobenzyl)-2-thiazolin-4-one], the half-maximal effective concentration (EC50) is more than 150 µM.

Consider `CCc1ccc2[nH]c(=O)c(C3c4ccc5cccnc5c4OC(=N)C3C#N)cc2c1` (configuration not stated), for which the EC50 was more than 150 µM.

Molecule `CC(=N)C(C#N)C(=O)CSc1nc2scc(-c3ccccc3)c2c(=O)n1C` (configuration not stated) [(E)-3-azanyl-2-[2-(3-methyl-4-oxidanylidene-5-phenyl-thieno[2,3-d]pyrimidin-2-yl)sulfanylethanoyl]but-2-enenitrile] showed an EC50 of more than 150 µM.

In turn, `CC(Oc1ccc(Cl)cc1Cl)C(=O)Nc1cc(=O)n(-c2ccccc2)[nH]1` (configuration not stated) [SMR000195064] displayed an EC50 of 123 µM.

Take `CC(C)(C)c1cc(-c2cs/c(=N\c3ccccc3)n2Cc2ccc(C(=O)O)cc2)cc(C(C)(C)C)c1O` [4-[[4-(3,5-ditert-butyl-4-oxidanyl-phenyl)-2-phenylazanyl-1,3-thiazol-3-ium-3-yl]methyl]benzoic acid;bromide]: the EC50 was more than 150 µM.
